From ChEMBL document CHEMBL1201862, “PubChem BioAssay data set” (2004)
Calls of active or inactive are those of the source. Cut-off read from the data, not from the text of the source: active = IC50 of 10 µM or less and inactive = more.

What was measured:
[1] = biological target: Melanin-concentrating hormone receptor 1 (Homo sapiens, UniProt Q99705); test: Late-stage fluorescence-based counterscreen for antagonists of the G-protein coupled receptor 7 (GPR7): cell-based dose response assay to identify antagonists of the melanin-concentrating hormone receptor 1 (MCHR1) Set 6.; assay type: functional
Sequence of Melanin-concentrating hormone receptor 1 (Q99705 whole entry): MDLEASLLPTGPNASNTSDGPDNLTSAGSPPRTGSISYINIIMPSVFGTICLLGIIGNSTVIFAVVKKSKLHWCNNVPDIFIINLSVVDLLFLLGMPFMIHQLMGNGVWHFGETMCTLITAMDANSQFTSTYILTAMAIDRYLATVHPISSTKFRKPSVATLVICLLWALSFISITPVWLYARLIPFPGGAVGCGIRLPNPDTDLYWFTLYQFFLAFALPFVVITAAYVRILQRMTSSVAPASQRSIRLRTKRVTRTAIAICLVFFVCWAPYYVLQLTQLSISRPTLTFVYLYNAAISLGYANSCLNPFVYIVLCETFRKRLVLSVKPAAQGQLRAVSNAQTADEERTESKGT

[2] = biological target: Neuropeptides B/W receptor type 1 (Homo sapiens, UniProt P48145); test: human NPBW1 receptor blockade, IC50 – cell-based, fluorescence, dose response, set 6, late-stage follow-up (AID 588583); assay type: functional
Sequence of Neuropeptides B/W receptor type 1 (P48145 whole entry): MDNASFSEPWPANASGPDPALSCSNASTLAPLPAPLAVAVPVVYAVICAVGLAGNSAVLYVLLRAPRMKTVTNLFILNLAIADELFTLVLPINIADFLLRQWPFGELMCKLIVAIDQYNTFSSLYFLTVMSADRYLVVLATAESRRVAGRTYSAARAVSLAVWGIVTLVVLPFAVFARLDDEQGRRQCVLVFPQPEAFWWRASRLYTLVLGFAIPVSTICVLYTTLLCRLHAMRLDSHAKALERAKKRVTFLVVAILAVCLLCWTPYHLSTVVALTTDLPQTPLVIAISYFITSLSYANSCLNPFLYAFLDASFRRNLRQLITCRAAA

IC50 [1]: > 20 µM (inactive)
IC50 [2]: > 20 µM (inactive)
Structure (SMILES): COc1ccc(Oc2c(Cl)cnn(Cc3ccccc3C(=O)O)c2=O)cc1
